Biological target: T1, Ubc13-Uev1 heterodimer (Homo sapiens, UniProt P61088)
T1 construct: gene UBE2N; heterodimer of purified recombinant Ubc13 and Uev1; with Ubiquitin-conjugating enzyme E2 variant 1
Assay: surface plasmon resonance competition: Ubc13 preincubated with compound, injected over immobilized Uev1
Format: binding
Conditions: inhibition of Ubc13-Uev1 interaction; Ubc13 400 nM; 10 mM HEPES, 0.15 M NaCl, pH 7.4; legend prints 1.1 µM

T1 sequence (P61088 whole entry): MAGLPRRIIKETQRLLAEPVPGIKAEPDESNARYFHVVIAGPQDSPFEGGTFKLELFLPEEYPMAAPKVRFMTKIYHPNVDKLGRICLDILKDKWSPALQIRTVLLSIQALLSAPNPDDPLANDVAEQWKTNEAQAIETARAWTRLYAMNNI
T1 sequence (Q13404 2-147 partner): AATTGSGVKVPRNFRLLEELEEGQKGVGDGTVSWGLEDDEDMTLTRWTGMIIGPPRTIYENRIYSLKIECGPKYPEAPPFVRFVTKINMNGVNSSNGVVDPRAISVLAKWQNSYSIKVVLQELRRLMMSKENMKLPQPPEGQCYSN

In the case of `NC(=O)CN(CCc1ccccn1)C(=O)CC1C(=O)N(CCc2ccc(F)cc2)CC(=O)N1CCc1ccc(F)cc1` (stereo not shown) [IIa, compound IIa], the IC50 is reported as 1100 nM.

Reference: paper PMC2894972, “Protein-Protein Interaction Antagonists as Novel Inhibitors of Non-Canonical Polyubiquitylation” (PLoS ONE, 2010)
